Results: patent US6080573A, “Enzymatic oxidation process” (Lever Brothers Company, Division of Conopco, Inc., priority 1996, dated 2000)

Columns and labels:
[1] = system: peroxidase; experiment: Peroxidase bleach enhancement: bleaching of Reactive Black 5; format: biochemical, Hormographiella species; details: pH 9, 25° C.; for OD reading at 590 nm (Reactive Black 5): tyrosine 200 μM or peptide 100 μM
Procedure: (§1) Dye bleach experiments were performed using a partially purified peroxidase derived from an Hormographiella species. The enzyme was purified by ultrafiltration from the fermentation broth, followed by ion-exchange chromatography using Q-Sepharose (Pharmacia) at pH 7. Enzyme activity is expressed as ABTS (2,2'-azino-bis(3-ethylbenzothiazoline-6-sulphonic acid) units. One ABTS unit represents the amount of enzyme which oxidizes ABTS, resulting in an increase of 1 optical density at 418 nm. Conditions for the activity assay were 2 mM ABTS, 1 mM H2 O2, 20 mM Tris, pH 9.
(§2) Bleaching experiments were conducted at 25° C. in 20 mM Phosphate buffer, set at pH 9. Added peroxidase activity was 60 ABTS units per millilitre. The peptide GGSCGYHYQHCGQG (one letter amino acid code) was added as a peroxidase enhancer at a concentration of 100 μM. The Reactive Black 5 concentration was 30 μM, and the H2 O2 concentration was 250 μM.
(§3) Bleaching of Reactive Black 5 was monitored by the decrease in optical density at 590 nm. The enhancing activity of the peptide was compared to that of the free amino acid tyrosine. As the peptide contains 2 tyrosine residues, 200 μM of the amino acid was added, as a comparison to 100 μM of peptide.

[2] = Dye transfer prevention: washing a coloured swatch in the presence of a white pick-up swatch with peroxidase; parameters: key to ΔE (colour difference): CIELAB colour difference ΔE vs control swatch without peptide; key to ΔL (whiteness): difference in CIELAB L* (lightness) vs control swatch; details: for ΔE (colour difference) / ΔL (whiteness): pH 9, 30 minutes, 40° C., versus control swatch without peptide enhancer; for dye transfer prevention / effect on white swatch: result in words
Procedure: The potential of the enzymatic system to prevent dye transfer was assessed by washing a coloured swatch in the presence of a white pick-up swatch. The experiments were performed in 25 ml Phosphate buffer, pH 9, containing the two swatches of 5×5 cm. The experiments were performed using a partially purified peroxidase derived from an Hormographiella species. Experiments were performed in the presence of 12 ABTS units/ml. The fabrics were agitated in the wash solution (25 ml) for 30 minutes at 40° C. The fabrics were line dried and the reflectance spectra were measured using a Minolta spectrometer. The data thereby obtained was transferred to the CIELAB L*a*b* colour space parameters. In this colour space, L* indicates lightness and a* and b* are the chromaticity coordinates. The colour differences between the control swatch, without addition the peptide enhancer, and the swatches washed in the presence of different concentrations of peptide, were expressed as ΔE, calculated from the following equation: [formula]

[3] = system: peroxidase; experiment: Peroxidase bleach enhancement: bleaching of red beet solution; format: biochemical, Hormographiella species; details: conditions as in example 3
Procedure: as §1, §2, §3
In order to study the selectivity of the peptide enhanced reaction, the bleaching of a red beet solution with the system was assayed. The extract of red beet is, as with dyes, susceptible the action of peroxidase enhancers. […] Experimental conditions are as in example 3.

[4] = ELISA: binding of alkaline phosphatase-Reactive Red 6 conjugate (AP-RR6) to peptide-coated plates; details: plates coated with 1 mg/ml peptide, p-nitro-phenyl-phosphate, 30 minutes
Procedure: The specific binding of peptide #1 (NH2-GGSCGYHYQHCGQG-COOH) to the dye Reactive Red 6 was measured (the peptide contains one disuphide bridge through the cysteine residues, sequence of the peptides is given in one letter amino acid codes).
(§4) For the detection of binding, the enzyme Alkaline Phosphatase (AP, 2.5 mg/ml) was conjugated with the reactive dye Reactive Red 6 (RR6, 1.25 mM), by incubation of the enzyme with the dye during 2 hours, at room temperature in Borate buffer, 0.1 M, 0.15 M NaCl, pH 8.5. The dye thereby becomes covalently linked to the amino groups of the enzyme by its triazine unit. Free dye was separated from the enzyme conjugate by gel filtration (PD-10 column, Pharmacia). Elisa plates (Polysorb, Nunc) were coated overnight with 100 μl of a 1 mg/ml peptide solution in Phosphate buffer, 150 mM NaCl, pH 7.4 (PBS). The peptide coated ELISA plates were blocked with 2% Bovine Serum Albumin (BSA) in PBS for 1 hour, room temperature. The Alkaline Phosphatase--RR6 conjugate (AP-RR6) was then incubated for 1 hour, room temperature, in incubation buffer (0.2 M Tris, 20 mM NaCl, 1% PEG 6000, 5% BSA). The plates were washed plates 3 times with wash buffer (0.2 M Tris, 60 mM Citrate, 0.1 M NaCl, 0.05% Tween) and 3 times with demineralized water. Bound Alkaline Phosphatase (AP) was then detected by incubation with the substrate p-nitro-phenyl-phosphate. […] As a control, Alkaline Phosphatase, not conjugated to the dye, was used.

[5] = system: Alkaline Phosphatase; experiment: ELISA control: binding of unconjugated Alkaline Phosphatase (AP) to peptide-coated plates; details: control: Alkaline Phosphatase not conjugated to the dye; plates coated with 1 mg/ml peptide; 30 minutes
Procedure: as §4

Molecule | OD reading at 590 nm (Reactive Black 5) ([1]; 0 minutes after incubation) | OD reading at 590 nm (Reactive Black 5) ([1]; 2 minutes after incubation) | OD reading at 590 nm (Reactive Black 5) ([1]; 4 minutes after incubation) | OD reading at 590 nm (Reactive Black 5) ([1]; 6 minutes after incubation) | OD reading at 590 nm (Reactive Black 5) ([1]; 8 minutes after incubation) | OD reading at 590 nm (Reactive Black 5) ([1]; 10 minutes after incubation) | OD reading at 590 nm (Reactive Black 5) ([1]; 12 minutes after incubation) | OD reading at 590 nm (Reactive Black 5) ([1]; 14 minutes after incubation) | ΔE (colour difference) ([2]; 25 μM) | ΔL (whiteness) ([2]; 25 μM) | ΔE (colour difference) ([2]; 50 μM) | ΔL (whiteness) ([2]; 50 μM) | ΔE (colour difference) ([2]; 100 μM) | ΔL (whiteness) ([2]; 100 μM) | dye transfer prevention / effect on white swatch [2] | bleaching of red beet solution (optical density) ([3]; 0 minutes after incubation) | bleaching of red beet solution (optical density) ([3]; 2 minutes after incubation) | bleaching of red beet solution (optical density) ([3]; 4 minutes after incubation) | OD 450 nm values, AP-RR6 [4] | OD 450 nm values, AP [5] | also measured
N[C@@H](Cc1ccc(O)cc1)C(=O)O [tyrosine] | 0.651 | 0.606 | 0.580 | 0.559 | 0.540 | 0.523 | 0.507 | 0.494 | 0.55 | -0.5 | 0.63 | -0.6 | 2.05 | -2.0 | darkening of the white swatch (negative ΔL) | 1.082 | 1.076 | 1.06 |  |  | bleaching of red beet solution (optical density) ([3]; 6 minutes after incubation): 1.022; bleaching of red beet solution (optical density) ([3]; 8 minutes after incubation): 0.906; bleaching of red beet solution (optical density) ([3]; 10 minutes after incubation): 0.739; bleaching of red beet solution (optical density) ([3]; 12 minutes after incubation): 0.591; bleaching of red beet solution (optical density) ([3]; 14 minutes after incubation): 0.488
Arg-Arg [Arg--Arg] |  |  |  |  |  |  |  |  |  |  |  |  |  |  |  |  |  |  | 0.09 | 0.003 | 
Val-Gly-Ser-Glu (VGSE; printed: Val-Gly-Ser-Glu) [V--G--S--E] |  |  |  |  |  |  |  |  |  |  |  |  |  |  |  |  |  |  | 0.03 | 0.003 | 
NH2-GGSCGYHYQHCGQG-COOH (H-GGSCGYHYQHCGQG-OH; cysteine pairing not given here) [Peptide #1] | 0.651 | 0.430 | 0.344 | 0.294 | 0.263 | 0.241 | 0.227 | 0.216 | 2.46 | 2.40 | 2.85 | 2.80 | 3.62 | 3.50 | clear dye transfer prevention benefit, resulting in a lighter white swatch | 1.091 | 1.083 | 1.063 | 2.36 | 0.047 | bleaching activity of the peroxidase in the presence of the peptide ([1]; result in words): enhanced bleaching activity; bleaching of red beet solution (optical density) ([3]; 6 minutes after incubation): 1.016; bleaching of red beet solution (optical density) ([3]; 8 minutes after incubation): 0.881; bleaching of red beet solution (optical density) ([3]; 10 minutes after incubation): 0.709; bleaching of red beet solution (optical density) ([3]; 12 minutes after incubation): 0.567; bleaching of red beet solution (optical density) ([3]; 14 minutes after incubation): 0.477; reaction enhancement over tyrosine, red beet solution ([3]; result in words): there is not reaction enhancement of the peptide over tyrosine
Lys-Lys-Lys [Lys--Lys--Lys] |  |  |  |  |  |  |  |  |  |  |  |  |  |  |  |  |  |  | 0.31 | 0.023 | 
